Data on 3 compounds can be found in patent publication EP0518753B1, “Derivatives of 1,5-diyne-3-cycloalcene, their process of preparation and pharmaceutical compositions containing them” (ADIR ET COMPAGNIE, priority 1991, dated 1992).

This experiment relates to cellules L 1210 (Leucémie murine). As to the kind of experiment: In vitro cytotoxicity, Microculture Tetrazolium Assay (cell growth inhibition). Type of experiment: cell-based. The settings on record: Mus musculus, L1210, L 1210 cells in RPMI 1640 with 10 % fetal calf serum, read-out: IC₅₀, concentration inhibant à 50 % la croissance cellulaire. As for the experimental part:
Les cellules L 1210 (Leucémie murine) sont cultivées dans du RPMI 1640 complémenté avec 10 % de sérum de veau foetal, 2 mM de L-glutamine, 100 unités/ml de pénicilline, 100 µg/ml de streptomycine et 10 mM d'Hepes (pH : 7,4). L'inhibition de la croissance cellulaire est mesurée selon le "Microculture Tetrazolium Assay" décrit par M. ALLEY et coll. (Cancer Res., 48, 589-601, 1988).
Les résultats de ce test sont exprimés en IC₅₀, concentration inhibant à 50 % la croissance cellulaire. Le produit de référence utilisé est le BCNU, agent alkylant très actif utilisé en clinique.

SMILES strings stand for the structures.

With `O=NN(CCCl)C(=O)NCCCl` [BCNU, reference compound], the IC50 worked out at 6.4 µM.
To `CC(=O)OC1C#C/C=C\C#CCCC1` (stereo not drawn) [exemple 2, 7-Acétoxy-1,5-diyne-3-cyclodécène] belongs 5.6 µM; to `O=C1C#Cc2ccccc2C#CCCC1` [exemple 7, 7-Oxo-benzo[c]cyclodéca-1,5-diyne], 0.5 µM.
